Measurements reported in publication PMC11641208, “Advanced PROTAC and Quantitative Proteomics Strategy Reveals Bax Inhibitor-1 as a Critical Target of Icaritin in Burkitt Lymphoma” (International Journal of Molecular Sciences, 2024).

Target: T1, Bax inhibitor-1 (BI-1) (Homo sapiens, UniProt P55061)
T1 construct: gene TMBIM6
Assay: SPR (Biacore T200, BI-1 immobilised on CM5 chip, kinetic […] fit)
Format: binding

T1 sequence (P55061 whole entry): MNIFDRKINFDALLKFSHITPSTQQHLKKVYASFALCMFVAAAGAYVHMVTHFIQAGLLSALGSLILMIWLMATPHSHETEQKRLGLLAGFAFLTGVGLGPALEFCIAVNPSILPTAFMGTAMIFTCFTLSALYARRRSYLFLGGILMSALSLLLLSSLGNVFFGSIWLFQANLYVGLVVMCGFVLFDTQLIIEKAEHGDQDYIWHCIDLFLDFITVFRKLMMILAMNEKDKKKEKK

- Kd: 79.7 µM
SMILES: C#CCOc1cc(O)c2c(=O)c(OCCOCCOCCOCC(=O)NCCCCCC(=O)Nc3cccc4c3CN(C3CCC(=O)NC3=O)C4=O)c(-c3ccc(OC)cc3)oc2c1CC=C(C)C (stereo not shown) [compound 10, LJ-41]
